Results on 2 compounds are retold here after PubChem BioAssay AID602482 (Sanford-Burnham Center for Chemical Genomics, 2012).

Activity calls are given as the source filed them.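 How the source made its calls: active means compounds whose mean concentration giving half-maximal cell killing is 20 µM or lower; inactive means the rest.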

The experiment has as its system NTR1-U2OS viability, ATPLite luminescence, 24 h. As to the kind of experiment: cytotoxicity in NTR1-U2OS cells, SAR follow-up, cytotoxicity control for NTR1 agonist project, cell-based, luminescence, ATPLite (AID 602482). (In ATP-based viability assays light output follows the ATP content of the culture.)

With `COc1cc2nc(C3CC3)nc(N3CCN(c4ccccc4OC)CC3)c2cc1OC`, the IC50 – broadly, the concentration that gives 50% inhibition – was 25.4 µM (inactive).
As for `COc1cccc(OC)c1-c1nc(C(=O)N[C@@H](CC(C)C)C(=O)O)cn1-c1ccnc2cc(Cl)ccc12`, the figure is > 80 µM (inactive).
